Assay type in all cases: functional, cell-based
For experiment [1], the system named is SNU1. Kind of experiment: In vitro cytotoxic activity against human tumor SNU 1 (stomach) cell line.
For experiment [2], the system named is SNU-C4. The experiment can be described thus: In vitro cytotoxic activity against human tumor SNU C-4(colon) cell line.
The test system of experiment [3] is SNU-354. The experiment can be described thus: In vitro cytotoxic activity against human tumor SNU 354 (liver) cell line.
Where [4] appears, read: Homo sapiens, SNU1, read-out: IC50.
Setting [5] is: Homo sapiens, SNU-C4, read-out: IC50.
The mark [6] stands for this setting: Homo sapiens, SNU-354, read-out: IC50.

In brackets after ≈: the same amount, converted by molar mass.

As usually defined, the IC50 is the point on the concentration scale where inhibition reaches its midpoint. As to `COc1cccc2c1C(=O)c1c(O)c3c(c(O)c1C2=O)C[C@@](O)(C(=O)CO)C[C@@H]3O[C@H]1C[C@H](N)[C@H](O)[C@H](C)O1` [DOXORUBICIN], the IC50 in experiment [1] (setting [4]), in experiment [2] (setting [5]) and in experiment [3] (setting [6]) was under 0.5 µg/mL throughout.

In the case of `O=C(O)c1c(=O)c2cc(F)c(N3CCNCC3)cc2n2c1oc1ccccc12`, the IC50 in experiment [1] (setting [4]) worked out at 15.3 µg/mL (≈ 40.1 µM); in experiment [2] (setting [5]), 13.4 µg/mL (≈ 35.1 µM); in experiment [3] (setting [6]), 19.8 µg/mL (≈ 51.9 µM).

As to `CN1CCN(c2cc3c(cc2F)c(=O)c(C(=O)O)c2oc4ccccc4n23)CC1.Cl`, the IC50 in experiment [1] (setting [4]) amounted to 2 µg/mL; in experiment [2] (setting [5]), 1.8 µg/mL; in experiment [3] (setting [6]) it was 1.9 µg/mL.

Turning to `CC(=O)N1CCN(c2cc3c(cc2F)c(=O)c(C(=O)O)c2oc4ccccc4n23)CC1`, the IC50 in experiment [1] (setting [4]), in experiment [2] (setting [5]) and in experiment [3] (setting [6]) was over 200 µg/mL throughout.

With CISPLATIN, the IC50 in experiment [1] (snu1) came to 1.4 µg/mL; in experiment [2] (snu-c4) it was 2.8 µg/mL; in experiment [3] (snu-354), 4.1 µg/mL.
